From patent US20080032978A1, “SOLUBLE EPOXIDE HYDROLASE INHIBITORS” (Arete Therapeutics, Inc., priority 2006, published 2008)

Test system: soluble epoxide hydrolase (sEH)
Test: Fluorescent assay for mouse and human soluble epoxide hydrolase (CMNPC substrate)
Assay type: biochemical
Conditions: Conc of I 50 nM
Excerpt: Fluorescent Assay for Mouse and Human Soluble Epoxide Hydrolase Recombinant mouse sEH (MsEH) and human sEH (HsEH) were produced in a baculovirus expression system as previously reported. Grant et al., J. Biol. Chem., 268:17628-17633 (1993); Beetham et al., Arch. Biochem. Biophys., 305:197-201 (1993). The expressed proteins were purified from cell lysate by affinity chromatography. Wixtrom et al., Anal. […] Protein concentration was quantified using the Pierce BCA assay using bovine serum albumin as the calibrating standard. […] Solutions: Bis/Tris HCl 25 mM 7.0 containing 0.1 mg/mL of BSA (buffer […] at 0.25 mM in DMSO. Mother solution of enzyme in buffer A (Mouse sEH at 6 μg/mL and Human sEH at 5 μg/mL). Inhibitor dissolved in DMSO at the appropriate concentration. Protocol: In a black 96 well plate, fill all the wells with 150 μL of buffer A. Add 2 μL of DMSO in well A2 and A3, and then add 2 μL of inhibitor solution in A1 and A4 through A12. Add 150 μL of buffer A in a row A, then mix several time and transfer 150 μL to row B. Repeat this operation up to row H. The 150 μL removed from row H go to the trash. Add 20 μL of buffer A in column 1 and 2, then add 20 μL of enzyme solution to column 3 to 12. Incubate the plate for 5 minutes in the plate reader at 30° C. During incubation prepare the working solution of substrate by mixing 3.68 mL of buffer A (4×0.920 mL) with 266 μL (2×133 μL) of substrate solution). At t=0, add 30 μL of working substrate solution with multi-channel pipette labeled “Briggs 303” and start the reading ([S]final: 5 μM). Read with ex: 330 nm (20 nm) and em: 465 nm (20 nm) every 30 second for 10 minutes. The velocities are used to analyze and calculate the IC50s.

SMILES	% I [%]
O=C(Nc1ccc(Cl)cc1)Nc1ccc(C(=O)N2CCOCC2)c(F)c1 [Compound 14, 1-(4-Chloro-phenyl)-3-[3-fluoro-4-(morpholine-4-carbonyl)-phenyl]-urea]	74
O=C(Nc1ccc(C(F)(F)F)cc1)Nc1ccc(F)c(C(=O)N2CCOCC2)c1 [Compound 16, 1-[4-Fluoro-3-(morpholine-4-carbonyl)-phenyl]-3-(4-trifluoromethyl-phenyl)-urea]	87
O=C(Nc1ccc(C(=O)N2CCOCC2)cc1)Nc1ccc(C(F)(F)F)cc1 [Compound 17, 1-[4-(Morpholine-4-carbonyl)-phenyl]-3-(4-trifluoromethyl-phenyl)-urea]	89
CN1CCN(C(=O)c2ccc(NC(=O)Nc3ccc(C(F)(F)F)cc3)cc2)CC1 [Compound 18, 1-[4-(4-Methyl-piperazine-1-carbonyl)-phenyl]-3-(4-trifluoromethyl-phenyl)-urea]	75
O=C(Nc1ccc(C(F)(F)F)cc1)Nc1ccc(C(=O)N2CCOCC2)c(F)c1 [Compound 22, 1-[3-Fluoro-4-(morpholine-4-carbonyl)-phenyl]-3-(4-trifluoromethyl-phenyl)-urea]	97
O=C(Nc1ccc(OC(F)(F)F)cc1)Nc1ccc(C(=O)N2CCOCC2)cc1 [Compound 26, 1-[4-(Morpholine-4-carbonyl)-phenyl]-3-(4-trifluoromethoxy-phenyl)-urea]	88
CN1CCN(C(=O)c2ccc(NC(=O)Nc3ccc(OC(F)(F)F)cc3)cc2)CC1 [Compound 27, 1-[4-(4-Methyl-piperazine-1-carbonyl)-phenyl]-3-(4-trifluoromethoxy-phenyl)-urea]	84
CN1CCN(C(=O)c2ccc(NC(=O)Nc3ccc(C(F)(F)F)cc3)cc2F)CC1 [Compound 30, 1-[3-Fluoro-4-(4-methyl-piperazine-1-carbonyl)-phenyl]-3-(4-trifluoromethyl-phenyl)-urea]	88
CC(C)N1CCN(C(=O)c2ccc(NC(=O)Nc3ccc(OC(F)(F)F)cc3)cc2)CC1 [Compound 32, 1-[4-(4-Isopropyl-piperazine-1-carbonyl)-phenyl]-3-(4-trifluoromethoxy-phenyl)-urea]	92
CC(C)N1CCN(C(=O)c2ccc(NC(=O)Nc3ccc(C(F)(F)F)cc3)cc2)CC1 [Compound 34, 1-[4-(4-Isopropyl-piperazine-1-carbonyl)-phenyl]-3-(4-trifluoromethyl-phenyl)-urea]	93
CN(CCN1CCOCC1)C(=O)c1ccc(NC(=O)Nc2ccc(C(F)(F)F)cc2)cc1 [Compound 41, N-Methyl-N-(2-morpholin-4-yl-ethyl)-4-[3-(4-trifluoromethyl-phenyl)-ureido]-benzamide]	93

Same assay, conditions: Conc of I 500 nM

SMILES	% I [%]
O=C(Nc1ccc(Cl)cc1)Nc1ccc(C(=O)N2CCOCC2)cc1 [Compound 2, 1-(4-Chloro-phenyl)-3-[4-(morpholine-4-carbonyl)-phenyl]-urea]	94
O=C(Nc1ccc(Cl)cc1)Nc1cccc(C(=O)N2CCOCC2)c1 [Compound 3, 1-(4-Chloro-phenyl)-3-[3-(morpholine-4-carbonyl)-phenyl]-urea]	88
COCCN1CCN(C(=O)c2ccc(NC(=O)NC34CC5CC(CC(C5)C3)C4)cc2)CC1 [Compound 4, 1-Adamantan-1-yl-3-{4-[4-(2-methoxy-ethyl)-piperazine-1-carbonyl]-phenyl}-urea]	96
CN1CCN(C(=O)c2ccc(NC(=O)NC34CC5CC(CC(C5)C3)C4)cc2)CC1 [Compound 5, 1-Adamantan-1-yl-3-[4-(4-methyl-piperazine-1-carbonyl)-phenyl]-urea]	96
O=C(Nc1ccc(Cl)cc1)Nc1ccc(C(=O)N2CCC(C(=O)O)CC2)cc1 [Compound 9, 1-{4-[3-(4-Chloro-phenyl)-ureido]-benzoyl}-piperidine-4-carboxylic acid]	64
O=C(Nc1ccc(Cl)cc1)Nc1cccc(C(=O)N2CCC(N3CCOCC3)CC2)c1 [Compound 10, 1-(4-Chloro-phenyl)-3-[3-(4-morpholin-4-yl-piperidine-1-carbonyl)-phenyl]-urea]	87
O=C(NC1CCC(C(=O)N2CCOCC2)CC1)NC12CC3CC(CC(C3)C1)C2 (stereo not shown) [Compound 11, 1-Adamantan-1-yl-3-[4-(morpholine-4-carbonyl)-cyclohexyl]-urea]	96
O=C(Nc1ccc(C(F)(F)F)cc1)Nc1cccc(C(=O)N2CCOCC2)c1 [Compound 15, 1-[3-(Morpholine-4-carbonyl)-phenyl]-3-(4-trifluoromethyl-phenyl)-urea]	99
CN1CCN(C(=O)c2cccc(NC(=O)Nc3ccc(C(F)(F)F)cc3)c2)CC1 [Compound 19, 1-[3-(4-Methyl-piperazine-1-carbonyl)-phenyl]-3-(4-trifluoromethyl-phenyl)-urea]	94
O=C(NC1CCC(C(=O)N2CCC(C(=O)O)CC2)CC1)NC12CC3CC(CC(C3)C1)C2 (stereo not shown) [Compound 21, 1-[4-(3-Adamantan-1-yl-ureido)-cyclohexanecarbonyl]-piperidine-4-carboxylic acid]	76
O=C(Nc1ccc(F)cc1)Nc1ccc(C(=O)N2CCOCC2)cc1 [Compound 23, 1-(4-Fluoro-phenyl)-3-[4-(morpholine-4-carbonyl)-phenyl]-urea]	69
CN1CCN(C(=O)c2ccc(NC(=O)Nc3ccc(F)cc3)cc2)CC1 [Compound 24, 1-(4-Fluoro-phenyl)-3-[4-(4-methyl-piperazine-1-carbonyl)-phenyl]-urea]	64
CN1CCN(C(=O)c2cc(NC(=O)Nc3ccc(C(F)(F)F)cc3)ccc2F)CC1 [Compound 33, 1-[4-Fluoro-3-(4-methyl-piperazine-1-carbonyl)-phenyl]-3-(4-trifluoromethyl-phenyl)-urea]	95
CC(C)N1CCN(C(=O)c2cccc(NC(=O)Nc3ccc(C(F)(F)F)cc3)c2)CC1 [Compound 35, 1-[3-(4-Isopropyl-piperazine-1-carbonyl)-phenyl]-3-(4-trifluoromethyl-phenyl)-urea]	92

Same assay, conditions: Conc of I 5000 nM

SMILES	% I [%]
O=C(Nc1ccccc1)Nc1ccc(C(=O)N2CCOCC2)cc1 [Compound 1, 1-[4-(Morpholine-4-carbonyl)-phenyl]-3-phenyl-urea]	97
CN(CC(=O)O)C(=O)c1ccc(NC(=O)NC23CC4CC(CC(C4)C2)C3)cc1 [Compound 6, {[4-(3-Adamantan-1-yl-ureido)-benzoyl]-methyl-amino}-acetic acid]	93
CN(CC(=O)O)C(=O)c1cccc(NC(=O)NC23CC4CC(CC(C4)C2)C3)c1 [Compound 7, {[3-(3-Adamantan-1-yl-ureido)-benzoyl]-methyl-amino}-acetic acid]	90
O=C(Nc1ccc(Cl)cc1)Nc1ccc(C(=O)N2CCC(N3CCOCC3)CC2)cc1 [Compound 8, 1-(4-Chloro-phenyl)-3-[4-(4-morpholin-4-yl-piperidine-1-carbonyl)-phenyl]-urea]	96
O=C(Nc1cccc(C(=O)N2CCC(C(=O)O)CC2)c1)NC12CC3CC(CC(C3)C1)C2 [Compound 13, 1-[3-(3-Adamantan-1-yl-ureido)-benzoyl]-piperidine-4-carboxylic acid]	99

Test system: not given
Test: not given
Conditions: not given

SMILES	melting point [°C]
COCCN1CCN(C(=O)c2ccc(NC(=O)NC34CC5CC(CC(C5)C3)C4)cc2)CC1 [Compound 4, 1-Adamantan-1-yl-3-{4-[4-(2-methoxy-ethyl)-piperazine-1-carbonyl]-phenyl}-urea]	191 to 194
CN1CCN(C(=O)c2ccc(NC(=O)NC34CC5CC(CC(C5)C3)C4)cc2)CC1 [Compound 5, 1-Adamantan-1-yl-3-[4-(4-methyl-piperazine-1-carbonyl)-phenyl]-urea]	190 to 196
O=C(Nc1ccc(Cl)cc1)Nc1ccc(C(=O)N2CCC(C(=O)O)CC2)cc1 [Compound 9, 1-{4-[3-(4-Chloro-phenyl)-ureido]-benzoyl}-piperidine-4-carboxylic acid]	238 to 241
O=C(NC1CCC(C(=O)N2CCOCC2)CC1)NC12CC3CC(CC(C3)C1)C2 (stereo not shown) [Compound 11, 1-Adamantan-1-yl-3-[4-(morpholine-4-carbonyl)-cyclohexyl]-urea]	128 to 131
